The nature of this assay: Serum triacylglycerol, cholesterol, HDL and LDL assays of diabetes mice, Table 4 groups (FIG. 4A-4D). It counts as in vivo, db/db mice (C57BLKS/J-leprdb/leprdb). Particulars: 4 mg/kg/day, versus phosphate solution control. Here is the method:
FIG. 4A is a bar chart of the triacylglycerol assay of diabetes mice in accordance with the present invention, wherein the mice of control group are administered with phosphate buffer; the mice of treatment group are administered with 4 mg/kg/day composition A1; the mice of B01 group are administered with commercial 4 mg/kg/day ferrous glycine, and the mice of C01 group are administered with 4 mg/kg/day ferrous sulfate.
FIG. 4B is a bar chart of the cholesterol assay of diabetes mice in accordance with the present invention, wherein the mice of control group are administered with phosphate buffer; the mice of treatment group are administered with 4 mg/kg/day composition A1; the mice of B01 group are administered with commercial 4 mg/kg/day ferrous glycine, and the mice of C01 group are administered with 4 mg/kg/day ferrous sulfate. […]
The mice were daily and orally administered with the composition A1 at dosage of […] for 12 weeks. The body weights of the mice were measured every 3 days, and the serum biochemical values of the mice were measured every 4 weeks after orally administering with the composition A1. Triacylglycerol and cholesterol of the serum biochemical values were determined using a Biochem-Immuno Fully Autoanalyzer (Brea, Calif., USA) or a Chemistry Analyzer (Hitachi, Ltd., Japan). […]

For the compound `NCC(=O)[O-].NCC(=O)[O-].[Fe+2]` [commercial ferrous glycine, ferrous glycine], the triacylglycerol entry is “effectively reduced”.
The same measure for “ferrous sulfate [commercial ferrous sulfate]”: “effectively reduced”.

(Values after US10183040B2, “Method for regulation of lipid metabolism” (PROFEAT BIOTECHNOLOGY CO., LTD., priority 2014, dated 2019).)
